Counter-ions that a name gives are not always drawn.
How the values were obtained:
[1] = system: breast cancer, renal cell cancer, and pancreatic cancer cell lines; assay: Matrigel invasion of breast, renal cell and pancreatic cancer cell lines with recombinant ApoE; type: cell-based, human; conditions: recombinant ApoE3 100 μg/mL vs BSA
Description: The ability of cancer cells to invade through matrigel in vitro was tested by using a trans-well matrigel invasion chamber system (354480, BD Biosciences). Various cancer cell lines were serum-starved overnight in media containing 0.2% FBS. The following day, invasion chambers were pre-equilibrated prior to the assay by adding 0.5 mL of starvation media to the top and bottom wells. Meanwhile, cancer cells were trypsinized and viable cells were counted using the trypan blue dead cell exclusion dye. Cancer cells were then resuspended at a concentration of 1×10^5 cells/1 mL starvation media, and 0.5 mL of cell suspension, containing 5×10^4 cells, was seeded into each trans-well. To determine the effect of recombinant ApoE on cancer cell invasion, human recombinant ApoE3 (4696, Biovision) or BSA were added to each trans-well at 100 μg/mL at the start of the assay. The invasion assay was allowed to proceed for 24 hours at 37° C. […] Following fixation, the inserts were washed in PBS and then cut out and mounted onto slides using VectaShield mounting medium containing DAPI nuclear stain (H-1000, Vector Laboratories). The basal side of each insert was imaged using an inverted fluorescence microscope (Zeiss Axiovert 40 CFL) at 5× magnification, and the number of DAPI-positive cells was quantified using ImageJ.

[2] = system: B-Raf^V600E/+; Pten^−/−; CDKN2A^−/− primary mouse melanoma cells; assay: B-RafV600E/+; Pten−/−; CDKN2A−/− melanoma cells in syngeneic C57BL/6 mice; type: in vivo; conditions: GW3965 diet 100 mg/kg
Description: Melanoma cells used for in vivo metastasis assays were transduced with a stably expressed retroviral construct encoding a luciferase reporter gene (Ponomarev et al., 2004), allowing us to monitor the in vivo progression of melanoma cells by bioluminescence imaging. The following numbers of melanoma cells, resuspended in 100 μL of PBS, were injected intravenously via the tail-vein: 4×10^4 MeWo cells, 2.5×10^5 HT-144 cells, 2×10^5 SK-Mel-334.2 cells, 5×10^4B16F10 cells, and 1×10^5 YUMM cells. The MeWo, HT-144, and SK-Mel-334.2 cells were injected into 6-8 week-old sex-matched NOD scid mice, while the B16F10 and YUMM cells were injected into 6-8 week-old sex-matched C57BL/6 mice. […] To assess the effect of GW3965 treatment on brain metastasis, 1×10^5 MeWo brain-metastatic derivatives were injected intracardially into athymic nude mice. Immediately following injection, mice were randomly assigned to a control diet or GW3965-supplemented diet (100 mg/kg). To determine whether oral delivery of GW3965 can inhibit the progression of incipient metastasis, NOD Scid mice were intravenously injected with 4×10^4 MeWo cells and the cells were allowed to colonize the lungs for 42 days, after which mice were blindedly assigned to a control diet or a GW3965-supplemented diet (100 mg/kg) treatment.

[3] = system: RCC human renal cancer cells, PANC1 human pancreatic cancer cells, H460 human lung cancer cells; assay: Matrigel invasion of renal, pancreatic and lung cancer cells treated with GW3965; type: cell-based; conditions: 1 μM for 72 hours prior to the assay
Description: Various cell lines (5×10^4 RCC human renal cancer cells, 5×10^4 PANC1 human pancreatic cancer cells, and 5×10^4 H460 human lung cancer cells) were treated with DMSO or GW3965 at 1 μM for 56 hours. The cells were serum starved for 16 hours in 0.2% FBS media in the presence of DMSO or GW3965. Following serum starvation, the cells were subjected to the trans-well invasion assay using a matrigel invasion chamber system (354480, BD Biosciences). Invasion chambers were pre-equilibrated prior to the assay by adding 0.5 mL of starvation media to the top and bottom wells. Meanwhile, cancer cells were trypsinized and viable cells were counted using trypan blue. Cancer cells were then resuspended at a concentration of 1×10^5 cells/1 mL starvation media, and 0.5 mL of cell suspension, containing 5×10^4 cells, was seeded into each trans-well. The invasion assay was allowed to proceed for 24 hours at 37° C. […] Following fixation, the inserts were washed in PBS and then cut out and mounted onto slides using VectaShield mounting medium containing DAPI nuclear stain (H-1000, Vector Laboratories). The basal side of each insert was imaged using an inverted fluorescence microscope (Zeiss Axiovert 40 CFL) at 5× magnification, and the number of DAPI-positive cells was quantified using ImageJ.

[4] = system: ApoE; assay: ApoE expression by qRT-PCR in human melanoma cells; type: cell-based; conditions: parental MeWo cells; GW3965 48 hours
Description: Total RNA was extracted from various cell lines using the miRvana kit (AM1560, Applied Biosystems, Austin, Tex.). The expression levels of mature miRNAs were quantified using the Taqman miRNA expression assay (4427975-0002228, Applied Biosystems). RNU44 was used as an endogenous control for normalization. For mRNA expression analyses, 600 ng of total RNA was reverse transcribed using the cDNA First-Strand Synthesis Kit (18080-051, Invitrogen), and roughly 200 ng of the resulting cDNA was then mixed with SYBR green PCR Master Mix (4309155, Applied Biosystems) and the appropriate primers. Each reaction was performed in quadruplicate, and mRNA expression was quantified by performing real-time PCR amplification using an ABI Prism 7900HT Real-Time PCR System (Applied Biosystems). GAPDH was used as an endogenous control for normalization. The following primers were used: […]
RNA was extracted from whole cell lysates using the Total RNA Purification Kit (17200, Norgen, Thorold, Canada). 600 ng of total RNA was then reverse transcribed into cDNA using the cDNA First-Strand Synthesis Kit (18080-051, Invitrogen), and quantitative real-time PCR amplification was performed as previously described (Pencheva et al., 2012) using an ABI Prism 7900HT Real-Time PCR System (Applied Biosystems, Austin, Tex.). Each PCR reaction was carried out in quadruplicates. Gene expression was normalized to GAPDH, which was used as an endogenous control.
For every sample, 600 ng of RNA was reverse transcribed into cDNA using the cDNA First-Strand Synthesis kit (Invitrogen). Approximately 200 ng of cDNA was mixed with SYBR® green PCR Master Mix and the corresponding forward and reverse primers specific for detection of human ApoE. Each reaction was carried out in quadruplicates, and ApoE mRNA expression levels were measured by quantitative real-time PCR amplification using an ABI Prism 7900HT Real-Time PCR System (Applied Biosystems). The relative ApoE expression was determined using the ΔΔCt method. GAPDH was used as an endogenous control for normalization purposes.

[5] = system: SK-Mel-2 human melanoma cells; assay: Subcutaneous SK-Mel-2 tumor growth in immunocompromised mice; type: in vivo; conditions: oral, GW3965-supplemented diet
[6] = system: DTIC-resistant MeWo human melanoma cells; conditions: oral, GW3965 diet 100 mg/kg
Description: Following growth of tumors to 5-10 mm^3 in volume, mice were blindedly assigned to the following treatment groups: (1) control diet; (2) control diet+DTIC (50 mg/kg); (3) GW3965-supplemented diet (100 mg/kg). […] DTIC was administered daily, as described above, in cycles consisting of 5 consecutive daily treatments interspersed by 2-day off-treatment intervals. Tumor growth was measured twice a week.

| Compound | tumor cell invasion [1] | overall survival [2] | tumor growth and lung metastasis [2] | tumor cell invasion [3] | expression of ApoE [4] | tumor growth inhibition [5] [%] | growth of in vivo-derived DTIC-resistant human melanoma tumors [6] |
| --- | --- | --- | --- | --- | --- | --- | --- |
| recombinant human ApoE: recombinant human ApoE3 (4696, BioVision) | inhibited |  |  |  |  |  |  |
| O=C(O)Cc1cccc(OCCCN(Cc2cccc(C(F)(F)F)c2Cl)CC(c2ccccc2)c2ccccc2)c1 [GW3965 2, 3-[3-[N-(2-Chloro-3-trifluoromethylbenzyl)-(2,2-diphenylethyl)amino]propyloxy] phenylacetic acid hydrochloride] |  | extended | robustly inhibited | inhibition | increased | 49 | strongly inhibited |

Source: patent publication US10945978B2, “Treatment and diagnosis of melanoma” (The Rockefeller University, priority 2012, dated 2021)
